Laboratory results published in US10106542B2, “Substituted 6,7-dihydropyrazolo[1,5-a]pyrazines as negative allosteric modulators of mGluR2 receptors” (Janssen Pharmaceutica NV, priority 2013, dated 2018).

Experiments:
[1] = target: T1, human mGlu2 receptor (Homo sapiens, UniProt Q14416); test: [35S]GTPγS binding assay (mGluR2 negative allosteric modulation); format: biochemical; details: for IC50: membranes from CHO cells transfected with human mGlu2 receptor, glutamate 60 μM, pIC50 = −log IC50 (M), read-out: GTPγS - hmGluR2 anGT pIC50 (converted); for Emax: relative maximal effect: maximal % inhibition relative to the control glutamate response, read-out: GTPγS - hmGluR2 anGT Emax
T1 construct: expressed in transfected cells; host or cells: CHO cells (membrane preparation)
In short: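 Membranes from butyrate-stimulated CHO cells expressing human mGlu2; 7 μg protein in HEPES pH 7.4, 100 mM NaCl, 3 mM MgCl2, 10 μM GDP, 10 μg/ml saponin. Compound tested against EC80-equivalent glutamate; 0.1 nM [35S]GTPγS, 30 min, 30 °C; filtration, scintillation counting. Data as % of control glutamate response.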

T1 sequence (Q14416 19-872): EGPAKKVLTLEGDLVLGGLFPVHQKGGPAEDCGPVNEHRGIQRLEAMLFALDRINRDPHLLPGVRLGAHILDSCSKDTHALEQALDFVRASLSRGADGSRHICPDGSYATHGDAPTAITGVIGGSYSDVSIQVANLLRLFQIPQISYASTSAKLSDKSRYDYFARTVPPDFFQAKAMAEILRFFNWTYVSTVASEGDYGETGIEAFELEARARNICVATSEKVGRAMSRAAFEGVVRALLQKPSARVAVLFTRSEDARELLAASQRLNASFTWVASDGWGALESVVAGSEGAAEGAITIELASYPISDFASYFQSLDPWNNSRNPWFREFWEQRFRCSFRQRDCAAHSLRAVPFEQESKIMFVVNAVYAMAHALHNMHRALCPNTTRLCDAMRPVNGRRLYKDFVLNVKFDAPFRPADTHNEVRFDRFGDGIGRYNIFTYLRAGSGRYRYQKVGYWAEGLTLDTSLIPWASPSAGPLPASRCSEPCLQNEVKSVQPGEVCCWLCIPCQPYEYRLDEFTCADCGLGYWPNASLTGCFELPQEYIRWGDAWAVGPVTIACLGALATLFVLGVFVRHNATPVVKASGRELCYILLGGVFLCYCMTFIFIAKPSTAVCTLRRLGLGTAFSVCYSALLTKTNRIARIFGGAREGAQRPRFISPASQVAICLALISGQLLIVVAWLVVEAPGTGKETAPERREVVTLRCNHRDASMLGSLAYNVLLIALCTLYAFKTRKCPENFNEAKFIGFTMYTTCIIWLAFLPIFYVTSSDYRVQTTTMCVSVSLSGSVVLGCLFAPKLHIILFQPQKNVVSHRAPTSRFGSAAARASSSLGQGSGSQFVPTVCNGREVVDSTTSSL

IC50 [1] [M] | Emax [1] [%] | melting point | SMILES
3.09e-09 | 103 | 93.7 °C | CN(C)c1cc(-c2cnn3c2C(=O)N(c2ccc(Cl)c(Cl)c2)CC3CF)ccn1 (single isomer, unassigned) [compound 90]
4.68e-07 | 103 | > 300 °C | COc1ccc(-c2cnn3c2C(=O)N(c2ccc(C(F)(F)F)cc2)C[C@@H]3C)cn1 [compound 150]
8.71e-09 | 104 | 158.9 °C | Cc1cc(-c2cnn3c2C(=O)N(c2ccc(C(F)(F)F)c(C)c2)C[C@@H]3C)cc(C)n1 [compound 157]
1.78e-07 | 105 | 105.4 °C | C[C@H]1CN(c2ccc(Cl)c(Cl)c2)C(=O)c2c(-c3ccnc(CO)c3)cnn21 [compound 125, (7S)-5-(3,4-Dichlorophenyl)-3-[2-(hydroxymethyl)-4-pyridyl]-7-methyl-6,7-dihydropyrazolo[1,5-a]pyrazin-4-one]
1.35e-08 | 104 | 71.5 °C | Cc1cc(-c2cnn3c2C(=O)N(c2cc(Cl)cc(Cl)c2)C[C@@H]3C)ccn1 [compound 159]
6.03e-09 | 105 | 64.7 °C | Cc1cc(-c2cnn3c2C(=O)N(c2ccc(Cl)c(OC(F)(F)F)c2)C[C@@H]3C)ccn1 [compound 169]
2.29e-08 | 103 | 125.6 °C | CNc1cc(-c2cnn3c2C(=O)N(c2ccc(C(F)(F)F)c(OC)c2)C[C@@H]3C)ccn1 [compound 183]
2.51e-08 | 106 | 108.5 °C | Cc1cc(-c2cnn3c2C(=O)N(c2ccc(OC(F)F)c(Cl)c2)C[C@@H]3C)ccn1 [compound 168]
1.07e-07 | 106 | 129.5 °C | Cc1cc(-c2cnn3c2C(=O)N(c2ccc(OCC(F)(F)F)cc2)C[C@@H]3C)ccn1 [compound 160]
2.4e-08 | 103 | 148 °C | Cc1cc(-c2cnn3c2C(=O)N(c2cc(F)c(C(F)(F)F)c(F)c2)C[C@@H]3C)ccn1 [compound 132]
2.34e-08 | 105 | 125.66 °C (dec.) | CNc1cc(-c2cnn3c2C(=O)N(c2ccc(C(F)(F)F)cn2)C[C@@H]3C)ccn1 [compound 210]
3.8e-09 | 109 | 147.6 °C | COc1nc(N2C[C@H](C)n3ncc(-c4ccnc(C)c4)c3C2=O)ccc1C(F)(F)F [compound 207]
6.31e-06 | 85 | > 300 °C | C[C@H]1CN(c2ccc(C(F)(F)F)cc2)C(=O)c2c(-c3ccc(N4CCNCC4)nc3)cnn21 [compound 176, (7S)-7-Methyl-3-(6-piperazin-1-yl-3-pyridyl)-5-[4-(trifluoromethyl)phenyl]-6,7-dihydropyrazolo[1,5-a]pyrazin-4-one]
3.31e-08 | 105 | 141.7 °C | Cc1cc(-c2cnn3c2C(=O)N(c2ccc(Cl)c(F)c2)C[C@@H]3C)ccn1 [compound 62]
7.59e-09 | 102 | 126.7 °C | Cc1cc(-c2cnn3c2C(=O)N(c2ccc(Cl)c(C)c2)C[C@@H]3C)ccn1 [compound 7]
3.89e-07 | 101 | 60.8 °C | Cc1cc(-c2cnn3c2C(=O)N(c2ccc(OCCF)c(C(F)(F)F)c2)C[C@@H]3C)ccn1 [compound 77, (7S)-5-[4-(2-Fluoroethoxy)-3-(trifluoromethyl)phenyl]-7-methyl-3-(2-methyl-4-pyridyl)-6,7-dihydropyrazolo[1,5-a]pyrazin-4-one]
9.55e-07 | 101 | 133 °C | COc1cc(F)cc(N2C[C@H](C)n3ncc(-c4ccnc(C)c4)c3C2=O)c1 [compound 85]
2.95e-07 | 108 | > 300 °C | CC(O)c1cc(-c2cnn3c2C(=O)N(c2ccc(Cl)c(Cl)c2)C[C@@H]3C)ccn1 (stereo partly drawn) [compound 111, (7S)-5-(3,4-Dichlorophenyl)-3-[2-(1-hydroxyethyl)-4-pyridyl]-7-methyl-6,7-dihydropyrazolo[1,5-a]pyrazin-4-one]
1.35e-06 | 102 | 220.8 °C | C[C@H]1CN(c2ccc(C(F)(F)F)cc2)C(=O)c2c(-c3ccnc(N4CCNCC4)c3)cnn21.Cl [compound 175, (7S)-7-Methyl-3-(2-piperazin-1-yl-4-pyridyl)-5-[4-(trifluoromethyl)phenyl]-6,7-dihydropyrazolo[1,5-a]pyrazin-4-one hydrochloride salt]
8.13e-07 | 104 | 101.2 °C | COc1cc(N2C[C@H](C)n3ncc(-c4ccnc(C)c4)c3C2=O)cc(F)c1F [compound 84]
2.14e-07 | 100 | 99.1 °C | CCOc1cc(N2CC(CO)n3ncc(-c4ccnc(C)c4)c3C2=O)ccc1C(F)(F)F (stereo not drawn) [compound 74]
1.26e-06 | 102 | 93 °C | CC(=O)N1CC(c2ccc(-c3cnn4c3C(=O)N(c3ccc(C(F)(F)F)cc3)C[C@@H]4C)cn2)C1 [compound 235]

IC50 [1] [M] | Emax [1] [%] | melting point | SMILES
3.55e-08 | 103 | 154.9 °C | C[C@H]1CN(c2ccc(C(F)(F)F)cc2)C(=O)c2c(-c3ccnc(CF)c3)cnn21 [compound 112]
4.37e-08 | 102 | 126.2 °C | Cc1cc(-c2cnn3c2C(=O)N(c2ccc(C4(C(F)(F)F)CC4)cc2)C[C@@H]3C)ccn1 [compound 136]
1.51e-07 | 104 | 146.6 °C | C[C@H]1CN(c2ccc(C(F)(F)F)cn2)C(=O)c2c(-c3ccnc(F)c3)cnn21 [compound 197]
1.62e-06 | 100 | 185.2 °C | Cc1cc(-c2cnn3c2C(=O)N(c2ccc(C(F)(F)F)c(F)c2)CC3)ccn1 [compound 39]
5.75e-09 | 108 | 70.5 °C | CC(C)c1cc(-c2cnn3c2C(=O)N(c2ccc(C(F)(F)F)cc2)C[C@@H]3C)ccn1 [compound 126, (7S)-3-(2-Isopropyl-4-pyridyl)-7-methyl-5-[4-(trifluoromethyl)phenyl]-6,7-dihydropyrazolo[1,5-a]pyrazin-4-one]
1.29e-07 | 102 | 144.3 °C | C[C@H]1CN(c2ccc(Cl)cc2)C(=O)c2c(-c3ccncc3)cnn21 [compound 73]
6.76e-09 | 109 | 107.87 °C (dec.) | COc1cc(-c2cnn3c2C(=O)N(c2ccc(C(F)(F)F)c(OC)n2)C[C@@H]3C)ccn1 [compound 240]
1.62e-08 | 104 | 104.2 °C | CCOc1cc(N2C[C@H](C)n3ncc(-c4ccncc4)c3C2=O)ccc1C(F)(F)F [compound 55]
8.71e-09 | 103 | 183.9 °C | CCOc1cc(N2C[C@H](C)n3ncc(-c4cc(C)nc(C)c4)c3C2=O)ccc1C(F)(F)F [compound 49]
7.08e-09 | 104 | 177.6 °C | C[C@H]1CN(c2ccc(Cl)c(Cl)c2)C(=O)c2c(-c3ccnc(C(F)F)c3)cnn21 [compound 114]
3.02e-09 | 108 | 62.4 °C | CC(C)c1cc(-c2cnn3c2C(=O)N(c2ccc(Cl)c(Cl)c2)C[C@@H]3C)ccn1 [compound 124]
1.45e-08 | 103 | 162 °C | Cc1cc(N2C[C@H](C)n3ncc(-c4ccncc4)c3C2=O)ccc1C(F)(F)F [compound 153]
4.47e-06 | 97 | 255.5 °C | Cc1cc(-c2cnn3c2C(=O)N(c2ccc(C(F)(F)F)cc2)CC3C(C)O)ccn1 (stereo not drawn) [compound 217]
6.61e-09 | 107 | 189.5 °C | CCOc1cc(-c2cnn3c2C(=O)N(c2ccc(C(F)(F)F)cc2)C[C@@H]3C)ccn1 [compound 123]
4.07e-08 | 102 | 142.4 °C | CCOc1nc(N2C[C@H](C)n3ncc(-c4ccnc(C)c4)c3C2=O)ccc1C(F)(F)F [compound 189, (7S)-5-[6-Ethoxy-5-(trifluoromethyl)-2-pyridyl]-7-methyl-3-(2-methyl-4-pyridyl)-6,7-dihydropyrazolo[1,5-a]pyrazin-4-one]
9.77e-09 | 102 | 233.1 °C | Cc1cc(-c2cnn3c2C(=O)N(c2ccc(S(F)(F)(F)(F)F)cc2)C[C@@H]3C)cc(C)n1 [compound 53]
2.45e-08 | 105 | 134.7 °C | C[C@H]1CN(c2ccc(C(F)(F)F)cc2)C(=O)c2c(-c3ccnc(C(F)F)c3)cnn21 [compound 131]
1e-08 | 105 | 127.5 °C | Cc1cc(-c2cnn3c2C(=O)N(c2ccc(C(F)F)c(Cl)c2)C[C@@H]3C)ccn1 [compound 174]
7.08e-08 | 100 | > 300 °C | C[C@H]1CN(c2ccc(Cl)c(C(F)(F)F)c2)C(=O)c2c(-c3ccncc3)cnn21 [compound 68]
6.17e-08 | 107 | 219.2 °C | Cc1cc(-c2cnn3c2C(=O)N(c2ccc(F)c(C)c2)C[C@@H]3C)ccn1 [compound 21]
1.66e-08 | 105 | 166.8 °C | COc1cc(-c2cnn3c2C(=O)N(c2ccc(Cl)c(Cl)c2)C[C@@H]3C)cc(C)n1 [compound 146]
